{"source": "patent US20240238242A1", "about": "“EGCG buccal tablet and use thereof” (priority 2023, published 2024)", "key": {"[1]": {"system": "Influenza A H3N2 virus (H3N2)", "type": "cell-based", "settings": "for average inactivation efficiency against virus / inactivation efficiency against the virus: H3N2 virus; for inactivation efficiency against the virus: single experiment"}, "[2]": {"system": "Madin-darby canine kidney cells (MDCK)"}, "SARS-CoV-2/C57MA14": {"system": "SARS-CoV-2/C57MA14", "set-up": "species or system BALB/c mice", "settings": "mouse, in vivo"}}, "note": "Values joined by “and” are separate entries in the source; they are usually repeats but may differ in a detail not shown here. Equal entries are not always repeated. Where two headings read alike, the source gives them in different places."}
{"compound": "O=C(O[C@@H]1Cc2c(O)cc(O)cc2O[C@@H]1c1cc(O)c(O)c(O)c1)c1cc(O)c(O)c(O)c1", "note": "[EGCG, Epigallocatechin gallate]", "values": [{"measurement": "CPE test, virus replication in cell wells 1-10", "setting": "[1]; 1 mM EGCG + H3N2 virus, 1 minute, third experiment, dilution factor 10^5", "result": "− and +"}, {"measurement": "CPE test, virus replication in cell wells 1-10", "setting": "[1]; 1 mM EGCG + H3N2 virus, 1 minute, third experiment, dilution factor 10^6", "result": "−"}, {"measurement": "CPE test, virus replication in cell wells 1-10", "setting": "[1]; 1 mM EGCG + H3N2 virus, 1 minute, third experiment, dilution factor 10^7", "result": "−"}, {"measurement": "CPE test, virus replication in cell wells 1-10", "setting": "[1]; 1 mM EGCG + H3N2 virus, 1 minute, third experiment, dilution factor 10^8", "result": "−"}, {"measurement": "CPE test, virus replication in cell wells 1-10", "setting": "[1]; 1 mM EGCG + H3N2 virus, 5 minute, first experiment, dilution factor 10^3", "result": "− and +"}, {"measurement": "CPE test, virus replication in cell wells 1-10", "setting": "[1]; 1 mM EGCG + H3N2 virus, 5 minute, first experiment, dilution factor 10^4", "result": "+ and −"}, {"measurement": "CPE test, virus replication in cell wells 1-10", "setting": "[1]; 1 mM EGCG + H3N2 virus, 5 minute, first experiment, dilution factor 10^5", "result": "−"}, {"measurement": "CPE test, virus replication in cell wells 1-10", "setting": "[1]; 1 mM EGCG + H3N2 virus, 5 minute, first experiment, dilution factor 10^6", "result": "−"}, {"measurement": "CPE test, virus replication in cell wells 1-10", "setting": "[1]; 1 mM EGCG + H3N2 virus, 5 minute, first experiment, dilution factor 10^7", "result": "−"}, {"measurement": "CPE test, virus replication in cell wells 1-10", "setting": "[1]; 1 mM EGCG + H3N2 virus, 5 minute, first experiment, dilution factor 10^8", "result": "−"}, {"measurement": "CPE test, virus replication in cell wells 1-10", "setting": "[1]; 1 mM EGCG + H3N2 virus, 5 minute, second experiment, dilution factor 10^3", "result": "−"}, {"measurement": "CPE test, virus replication in cell wells 1-10", "setting": "[1]; 1 mM EGCG + H3N2 virus, 5 minute, second experiment, dilution factor 10^4", "result": "−"}, {"measurement": "CPE test, virus replication in cell wells 1-10", "setting": "[1]; 1 mM EGCG + H3N2 virus, 5 minute, second experiment, dilution factor 10^5", "result": "−"}, {"measurement": "CPE test, virus replication in cell wells 1-10", "setting": "[1]; 1 mM EGCG + H3N2 virus, 5 minute, second experiment, dilution factor 10^6", "result": "−"}, {"measurement": "CPE test, virus replication in cell wells 1-10", "setting": "[1]; 1 mM EGCG + H3N2 virus, 5 minute, second experiment, dilution factor 10^7", "result": "−"}, {"measurement": "CPE test, virus replication in cell wells 1-10", "setting": "[1]; 1 mM EGCG + H3N2 virus, 5 minute, second experiment, dilution factor 10^8", "result": "−"}, {"measurement": "average inactivation efficiency against virus", "setting": "[1]; 1 mM EGCG, 1 minute, three experiments", "result": 61.78, "unit": "%"}, {"measurement": "inactivation efficiency against the virus", "setting": "[1]; 1 mM EGCG, 5 minutes", "result": "99.50% and 99.87%"}, {"measurement": "average inactivation efficiency against virus", "setting": "[1]; 1 mM EGCG, 5 minutes, two experiments", "result": 99.69, "unit": "%"}, {"measurement": "CPE test, virus replication in cell wells (wells 1-10)", "setting": "[1]; 5 mM EGCG + H3N2 virus, 1 minute, first experiment, dilution factor 10^4", "result": "−"}, {"measurement": "CPE test, virus replication in cell wells (wells 1-10)", "setting": "[1]; 5 mM EGCG + H3N2 virus, 1 minute, first experiment, dilution factor 10^5", "result": "−"}, {"measurement": "CPE test, virus replication in cell wells (wells 1-10)", "setting": "[1]; 5 mM EGCG + H3N2 virus, 1 minute, first experiment, dilution factor 10^6", "result": "−"}, {"measurement": "CPE test, virus replication in cell wells (wells 1-10)", "setting": "[1]; 5 mM EGCG + H3N2 virus, 1 minute, first experiment, dilution factor 10^7", "result": "−"}, {"measurement": "CPE test, virus replication in cell wells (wells 1-10)", "setting": "[1]; 5 mM EGCG + H3N2 virus, 1 minute, first experiment, dilution factor 10^8", "result": "−"}, {"measurement": "CPE test, virus replication in cell wells (wells 1-10)", "setting": "[1]; 5 mM EGCG + H3N2 virus, 1 minute, second experiment, dilution factor 10^3", "result": "+"}, {"measurement": "CPE test, virus replication in cell wells (wells 1-10)", "setting": "[1]; 5 mM EGCG + H3N2 virus, 1 minute, second experiment, dilution factor 10^4", "result": "−"}, {"measurement": "CPE test, virus replication in cell wells (wells 1-10)", "setting": "[1]; 5 mM EGCG + H3N2 virus, 1 minute, second experiment, dilution factor 10^5", "result": "−"}, {"measurement": "CPE test, virus replication in cell wells (wells 1-10)", "setting": "[1]; 5 mM EGCG + H3N2 virus, 1 minute, second experiment, dilution factor 10^6", "result": "−"}, {"measurement": "CPE test, virus replication in cell wells (wells 1-10)", "setting": "[1]; 5 mM EGCG + H3N2 virus, 1 minute, second experiment, dilution factor 10^7", "result": "−"}, {"measurement": "CPE test, virus replication in cell wells (wells 1-10)", "setting": "[1]; 5 mM EGCG + H3N2 virus, 1 minute, second experiment, dilution factor 10^8", "result": "−"}, {"measurement": "CPE test, virus replication in cell wells 1-10", "setting": "[1]; 5 mM EGCG + H3N2 virus, 1 minute, third experiment, dilution factor 10^4", "result": "−"}, {"measurement": "CPE test, virus replication in cell wells 1-10", "setting": "[1]; 5 mM EGCG + H3N2 virus, 1 minute, third experiment, dilution factor 10^5", "result": "−"}, {"measurement": "CPE test, virus replication in cell wells 1-10", "setting": "[1]; 5 mM EGCG + H3N2 virus, 1 minute, third experiment, dilution factor 10^6", "result": "−"}, {"measurement": "CPE test, virus replication in cell wells 1-10", "setting": "[1]; 5 mM EGCG + H3N2 virus, 1 minute, third experiment, dilution factor 10^7", "result": "−"}, {"measurement": "CPE test, virus replication in cell wells 1-10", "setting": "[1]; 5 mM EGCG + H3N2 virus, 1 minute, third experiment, dilution factor 10^8", "result": "−"}, {"measurement": "CPE test, virus replication in cell wells 1-10", "setting": "[1]; 5 mM EGCG + H3N2 virus, 5 minute, first experiment, dilution factor 10^4", "result": "− and +"}, {"measurement": "CPE test, virus replication in cell wells 1-10", "setting": "[1]; 5 mM EGCG + H3N2 virus, 5 minute, first experiment, dilution factor 10^5", "result": "− and +"}, {"measurement": "CPE test, virus replication in cell wells 1-10", "setting": "[1]; 5 mM EGCG + H3N2 virus, 5 minute, first experiment, dilution factor 10^6", "result": "−"}, {"measurement": "CPE test, virus replication in cell wells 1-10", "setting": "[1]; 5 mM EGCG + H3N2 virus, 5 minute, first experiment, dilution factor 10^7", "result": "−"}, {"measurement": "CPE test, virus replication in cell wells 1-10", "setting": "[1]; 5 mM EGCG + H3N2 virus, 5 minute, first experiment, dilution factor 10^8", "result": "−"}, {"measurement": "CPE test, virus replication in cell wells 1-10", "setting": "[1]; 5 mM EGCG + H3N2 virus, 5 minute, second experiment, dilution factor 10^3", "result": "+"}, {"measurement": "CPE test, virus replication in cell wells 1-10", "setting": "[1]; 5 mM EGCG + H3N2 virus, 5 minute, second experiment, dilution factor 10^4", "result": "−"}, {"measurement": "CPE test, virus replication in cell wells 1-10", "setting": "[1]; 5 mM EGCG + H3N2 virus, 5 minute, second experiment, dilution factor 10^5", "result": "−"}, {"measurement": "CPE test, virus replication in cell wells 1-10", "setting": "[1]; 5 mM EGCG + H3N2 virus, 5 minute, second experiment, dilution factor 10^6", "result": "−"}, {"measurement": "CPE test, virus replication in cell wells 1-10", "setting": "[1]; 5 mM EGCG + H3N2 virus, 5 minute, second experiment, dilution factor 10^7", "result": "−"}, {"measurement": "CPE test, virus replication in cell wells 1-10", "setting": "[1]; 5 mM EGCG + H3N2 virus, 5 minute, second experiment, dilution factor 10^8", "result": "−"}, {"measurement": "inactivation efficiency against the virus", "setting": "[1]; 5 mM EGCG, 1 minute", "result": "98.74% and 96.84%"}, {"measurement": "average inactivation efficiency against virus", "setting": "[1]; 5 mM EGCG, 1 minute, three experiments", "result": 98.11, "unit": "%"}, {"measurement": "inactivation efficiency against the virus", "setting": "[1]; 5 mM EGCG, 5 minutes", "result": "97.49% and 98.74%"}, {"measurement": "average inactivation efficiency against virus", "setting": "[1]; 5 mM EGCG, 5 minutes, two experiments", "result": 98.32, "unit": "%"}, {"measurement": "CPE test / cytotoxicity, negative control group", "setting": "[2]", "result": "−"}, {"measurement": "Cytotoxicity / CPE in cell wells 1-10, negative control group", "setting": "[2]", "result": "−"}, {"measurement": "Cytotoxicity / CPE in cell wells, negative control group (EGCG + culture medium)", "setting": "[2]", "result": "−"}, {"measurement": "Cytotoxicity / CPE in cell wells, negative control group (wells 1-10)", "setting": "[2]", "result": "−"}, {"measurement": "Cytotoxicity / CPE in negative control group", "setting": "[2]", "result": "−"}, {"measurement": "Cytotoxicity / CPE per cell well, negative control group", "setting": "[2]", "result": "−"}, {"measurement": "Cytotoxicity / CPE test, negative control group", "setting": "[2]", "result": "−"}, {"measurement": "cell status in negative control group", "setting": "[2]; MDCK cells, 0.2 mM group", "result": "good growth status"}, {"measurement": "cytotoxicity in negative control group", "setting": "[2]; MDCK cells, 1 mM group", "result": "cytotoxicity was observed"}, {"measurement": "cytotoxicity in negative control group", "setting": "[2]; MDCK cells, 5 mM group", "result": "cytotoxicity was observed"}, {"measurement": "cytotoxicity in negative control group", "setting": "[2]; MDCK cells, sample of 10 times dilution in the 1 mM group", "result": "cytotoxicity was observed"}, {"measurement": "mice protected from death caused by lethal dose infection", "setting": "SARS-CoV-2/C57MA14", "result": 60, "unit": "%"}, {"measurement": "viral nucleic acid loads in lungs and turbinates", "setting": "SARS-CoV-2/C57MA14", "result": "significantly reduce"}]}
